# Laboratory results published in US20040019022A1, “Use of 2,3 alkylcarbonyloxybenzoic acids, derivatives and analogues therefrom in the treatment of tissue and cellular dysfunction, damage and injury in mammals” (priority 2002, published 2004).
# Columns and labels:
# [1] = test system: rat model of cecal ligation and perforation (CLP)-induced sepsis; assay: Awake rat model of cecal ligation and perforation (CLP)-induced sepsis, acute lung injury; type: in vivo
# Source text: An awake rat model of cecal ligation and perforation (CLP)-induced sepsis was employed to examine the therapeutic effect of 2,3-diacetoxybenzoic acid in sepsis induced acute lung injury. Oxidative stress resulting in increased lung permeability is characteristic of the onset and progression of acute lung injury in this model. […] 2,3-Diacetoxybenzoic acid treated animals appeared to have improvement in sepsis-associated symptoms such as lethargy, diarrhea, anorexia, and abdomenal distention.
# [2] = test system: guinea pigs administered aerosolized LPS; assay: Aerosolized LPS exposure in guinea pigs, bronchoalveolar lavage (BAL) 24 h after LPS; type: in vivo; conditions: guinea pig
# Protocol: The potential therapeutic effect of 2,3-alkylcarbonyloxybenzoic acids is exemplified by data generated in the study of 2,3-diacetoxybenzoic acid in guinea pigs. 2,3-diacetoxybenzoic acid was administered via intra-peritoneal injection to guinea pigs administered aerosolized LPS. Each animal was treated with 150 mg/kg of 2,3-diacetoxybenzoic acid or vehicle 1 hour prior to and 4 hours following LPS administration. Twenty four hours following administration of LPS, bronchoalveolar lavage (BAL) was performed. Intra-peritoneal administration of 2,3-diacetoxybenzoic acid appeared to have no effect on LPS-induced neutrophil recruitment into the lung. However, 2,3-diacetoxybenzoic acid treatment did produce a statistically significant reduction in albumin leakage (44%), a component of LPS-induced edema formation indicating a decrease in lung vascular permeability.
# [3] = 2.5 mg/kg/h continuous infusion
# [4] = 2.5 mg/kg/h continuous infusion from 1 h to 24 h after induction of sepsis, 24 hours, mean ± SEM
# [5] = 150 mg/kg i.p. 1 h prior to and 4 h post LPS, BAL 24 h after LPS, mean ± SEM, n = 5
smiles,measurement,setting,value
"CC(=O)Oc1cccc(C(=O)O)c1OC(C)=O [DABA, 2,3-diacetoxybenzoic acid]",body temperature,[1]; [3],normalized
same,cardiac output,[1]; [3],normalized
same,respiratory rate,[1]; [3],normalized
same,"sepsis-associated symptoms such as lethargy, diarrhea, anorexia, and abdomenal distention",[1]; [3],improvement
same,lung microvascular permeability increases,[1]; 2.5 mg/kg/h continuous infusion from 1 h to 24 h after induction of sepsis,reduced
same,"Systemic WBC, 1 hour","[1]; 2.5 mg/kg/h continuous infusion from 1 h to 24 h after induction of sepsis, 1 hour, mean ± SEM",6.7 ± 1.1 ×10^9/liter
same,"BAL WBC, 24 hours",[1]; [4],0.04 ± 0.02 ×10^9/liter
same,"BAL protein, 24 hours",[1]; [4],1.45 ± 1.73 mg/dL
same,"Systemic WBC, 24 hours",[1]; [4],3.6 ± 1.4 ×10^9/liter
same,effect on LPS-induced neutrophil recruitment into the lung,[2]; 150 mg/kg i.p. 1 h prior to and 4 h following LPS,no effect
same,reduction in albumin leakage,"[2]; 150 mg/kg i.p. 1 h prior to and 4 h following LPS, versus vehicle, statistically significant",44%
same,Albumin (BAL fluid),[2]; [5],605 ± 78 μg/mL BALF
same,Neutrophil (BAL fluid),[2]; [5],80 ± 11 ×10^6/mL BALF
same,Total Cell (BAL fluid),[2]; [5],112 ± 14 ×10^6/mL BALF
